Patent publication US20230069722A1, “TUBULYSINS AND PROTEIN-TUBULYSIN CONJUGATES” (priority 2020, published 2023)
pIC50: −log10 of the molar value. Read-outs that look alike come from different tables or passages of the source.

Test system: HCT15 cells
Experiment: MDR cell based killing assay, HCT15 cells with or without Verapamil (CellTiter-Glo)
Design: species or system human
Settings: Homo sapiens
Description: To test the ability of the disclosed tubulysin payloads or prodrug payloads to kill human cell lines, an in vitro cytotoxicity assay can be performed. In vitro cytotoxicity of the disclosed payloads, as well as reference compounds, are evaluated using the CellTiter-Glo Assay Kit (Promega, Cat # G7573), in which the quantity of ATP present is used to determine the number of viable cells in culture. For the assay, C4-2, HEK293, or T47D cells are seeded at 4000 cells/well on Nunclon white 96-well plates in complete growth medium (DME high glucose:Ham's F12 at 4:1, 10% FBS, 100 units/ml Penicillin, 100 ug/ml streptomycin, 53 ug/ml glutatmine, 10 ug/ml insulin, 220 ng/ml biotin, 12.5 pg/ml T3, 12.5 ug/ml Adenine, 4 ug/ml transferrin for C42 cells; DME high glucose, 10% FBS, 100 units/ml Penicillin, 100 ug/ml streptomycin, 53 ug/ml glutatmine for HEK293; RPMI, 10% FBS, 100 units/ml Penicillin, 100 ug/ml streptomycin, 53 ug/ml glutatmine, 10 ug/ml insulin, 10 mM HEPEs, 200 nM Sodium Pyruvate for T47D cells) and grown overnight at 37° C. in 5% CO2. For cell viability curves, 1:3 serially diluted payloads are added to the cells at final concentrations ranging from 100 nM to 15 pM, including a no treatment control group, and are then incubated for 5 days. After the 5-day incubation, cells are incubated at room temperature with 100 μL of CellTiter-Glo reagents for 10 minutes. Relative luminescence units (RLU) can be determined on a Victor plate reader (PerkinElmer). The IC50 values are determined from a four-parameter logistic equation over a 10-point response curve (GraphPad Prism). All IC50 values are expressed in molar (M) concentration. The percent cell killing (% kill) at the maximum concentration tested is estimated from the following formula (100−% viable cells). Averages±standard deviation (SD) can be included where replicate experiments are performed.
In vitro cytotoxicity of the disclosed payloads as well as reference compounds are evaluated similarly as described above except using 1000 HCT15 cells, a colorectal carcinoma cell line, in growth medium (RPMI, 10% FBS, 100 units/ml Penicillin, 100 ug/ml streptomycin, 53 ug/ml glutatmine) with or without 5 ug/mL of Verapamil.
For each payload or prodrug payload, the HCT-15 IC50 in the absence of Verapamil is divided by the HCT-15 IC50 in the presence of Verapamil (HCT-15 IC50/HCT-15+Verapamil IC50). […] The reference compound, (MMAE), can have a ratio of 23.7. […]

[1] = HCT-15, read-out: HCT-15 with verapamil IC50

Compound | pIC50 (HCT-15, read-out: HCT-15 IC50) | pIC50 [1]
CCCCCCN(C(=O)[C@@H](NC(=O)[C@H]1C[C@H](C)CCN1)[C@@H](C)CC)[C@H](C[C@@H](OCC)c1nc(C(=O)N[C@@H](Cc2ccc(N)c(F)c2)CC(C)(C)C(=O)O)cs1)C(C)C [Compound P17, (4S)-5-(4-amino-3-fluorophenyl)-4-({2-[(1R,3R)-1-ethoxy-3-[(2S,3S)—N-hexyl-3-methyl-2-{[(2R,4R)-4-methylpiperidin-2-yl]formamido}pentanamido]-4-methylpentyl]-1,3-thiazol-4-yl}formamido)-2,2-dimethylpentanoic Acid] | 8.29 | 9.17
CCCCCCN(C(=O)[C@@H](NC(=O)[C@H]1CCCCN1C)[C@@H](C)CC)[C@H](C[C@@H](OCC)c1nc(C(=O)N[C@@H](Cc2ccc(N)cc2)CC(C)(C)C(=O)O)cs1)C(C)C [Compound P8, (4S)-5-(4-aminophenyl)-4-({2-[(1R,3R)-1-ethoxy-3-[(2S,3S)—N-hexyl-3-methyl-2-{[(2R)-1-methylpiperidin-2-yl]formamido}pentanamido]-4-methylpentyl]-1,3-thiazol-4-yl}formamido)-2,2-dimethylpentanoic Acid] | 9.62 | 10.22
CCCCCCN(C(=O)[C@@H](NC(=O)[C@H]1CCCCN1C)[C@@H](C)CC)[C@H](C[C@@H](OCC)c1nc(C(=O)N[C@@H](Cc2ccc(N)c(F)c2)CC(C)(C)C(=O)O)cs1)C(C)C [Compound P3, (4S)-5-(4-amino-3-fluorophenyl)-4-({2-[(1R,3R)-1-ethoxy-3-[(2S,3S)—N-hexyl-3-methyl-2-{[(2R)-1-methylpiperidin-2-yl]formamido}pentanamido]-4-methylpentyl]-1,3-thiazol-4-yl}formamido)-2,2-dimethylpentanoic Acid] | 10.15 | 11.00
C#CCCCON(C(=O)[C@@H](NC(=O)[C@H]1CCCCN1C)[C@@H](C)CC)[C@H](C[C@@H](OC(C)=O)c1nc(C(=O)N[C@@H](Cc2ccc(NC(=O)CO)cc2)CC(C)(C)C(=O)O)cs1)C(C)C [Compound P37, (4S)-4-({2-[(1R,3R)-1-(acetyloxy)-4-methyl-3-[(2S,3S)-3-methyl-2-{[(2R)-1-methylpiperidin-2-yl]formamido}-N-(pent-4-yn-1-yloxy)pentanamido]pentyl]-1,3-thiazol-4-yl}formamido)-5-[4-(2-hydroxyacetamido)phenyl]-2,2-dimethylpentanoic Acid] | 6.99 | –
CCCCCCN(C(=O)[C@@H](NC(=O)[C@@]1(C)CCCN1)[C@@H](C)CC)[C@H](C[C@@H](OC(=O)NC)c1nc(C(=O)N[C@@H](Cc2ccc(O)cc2)CC(C)(C)C(=O)O)cs1)C(C)C [Compound P23, (4S)-4-({2-[(1R,3R)-3-[(2S,3S)—N-hexyl-3-methyl-2-{[(2R)-2-methylpyrrolidin-2-yl]formamido}pentanamido]-4-methyl-1-[(methylcarbamoyl)oxy]pentyl]-1,3-thiazol-4-yl}formamido)-5-(4-hydroxyphenyl)-2,2-dimethylpentanoic Acid] | 8.44 | 10.22
C#CCCCON(C(=O)[C@@H](NC(=O)[C@@]1(C)CCCN1)[C@@H](C)CC)[C@H](C[C@@H](OC(C)=O)c1nc(C(=O)N[C@@H](Cc2ccc(N)c(F)c2)CC(C)(C)C(=O)O)cs1)C(C)C [Compound P35, (4S)-4-({2-[(1R,3R)-1-(acetyloxy)-4-methyl-3-[(2S,3S)-3-methyl-2-{[(2R)-2-methylpyrrolidin-2-yl]formamido}-N-(pent-4-yn-1-yloxy)pentanamido]pentyl]-1,3-thiazol-4-yl}formamido)-5-(4-amino-3-fluorophenyl)-2,2-dimethylpentanoic Acid] | 8.31 | –
CCCCCCN(C(=O)[C@@H](NC(=O)[C@H]1CCCCN1C)[C@@H](C)CC)[C@H](C[C@@H](O)c1nc(C(=O)N[C@@H](Cc2ccc(N)c(F)c2)CC(C)(C)C(=O)O)cs1)C(C)C [Compound P1, (4S)-5-(4-amino-3-fluorophenyl)-4-({2-[(1R,3R)-3-[(2S,3S)—N-hexyl-3-methyl-2-{[(2R)-1-methylpiperidin-2-yl]formamido}pentanamido]-1-hydroxy-4-methylpentyl]-1,3-thiazol-4-yl}formamido)-2,2-dimethylpentanoic Acid] | 8.52 | 9.59
CCCCCCN(C(=O)[C@@H](NC(=O)[C@@]1(C)CCCN1)[C@@H](C)CC)[C@H](C[C@@H](OC(C)=O)c1nc(C(=O)N[C@@H](Cc2ccc(O)cc2)CC(C)(C)C(=O)O)cs1)C(C)C [Compound P22, (4S)-4-({2-[(1R,3R)-1-(acetyloxy)-3-[(2S,3S)—N-hexyl-3-methyl-2-{[(2R)-2-methylpyrrolidin-2-yl]formamido}pentanamido]-4-methylpentyl]-1,3-thiazol-4-yl}formamido)-5-(4-hydroxyphenyl)-2,2-dimethylpentanoic Acid] | 9.57 | 10.10
C#CCCCON(C(=O)[C@@H](NC(=O)[C@H]1CCCCN1C)[C@@H](C)CC)[C@H](C[C@@H](OC(C)=O)c1nc(C(=O)NS(=O)(=O)Cc2ccc(N)cc2)cs1)C(C)C [Compound P49, (1R,3R)-1-(4-{[(4-aminophenyl)methanesulfonyl]carbamoyl}-1,3-thiazol-2-yl)-4-methyl-3-[(2S,3S)-3-methyl-2-{[(2R)-1-methylpiperidin-2-yl]formamido}-N-(pent-4-yn-1-yloxy)pentanamido]pentyl Acetate] | 6.79 | –
CCCCCCN(C(=O)[C@@H](NC(=O)[C@H]1C[C@H](C)CCN1)[C@@H](C)CC)[C@H](C[C@@H](OCC)c1nc(C(=O)N[C@@H](Cc2ccc(N)cc2)CC(C)(C)C(=O)O)cs1)C(C)C [Compound P21, (4S)-5-(4-aminophenyl)-4-({2-[(1R,3R)-1-ethoxy-3-[(2S,3S)—N-hexyl-3-methyl-2-{[(2R,4R)-4-methylpiperidin-2-yl]formamido}pentanamido]-4-methylpentyl]-1,3-thiazol-4-yl}formamido)-2,2-dimethylpentanoic Acid] | 7.95 | 8.83
CCCCCON(C(=O)[C@@H](NC(=O)[C@H]1CCCCN1)[C@@H](C)CC)[C@H](C[C@@H](OC(C)=O)c1nc(C(=O)N[C@@H](Cc2ccc(N)cc2)CC(C)(C)C(=O)O)cs1)C(C)C [Compound P36, (4S)-4-({2-[(1R,3R)-1-(acetyloxy)-4-methyl-3-[(2S,3S)-3-methyl-N-(pentyloxy)-2-[(2R)-piperidin-2-ylformamido]pentanamido]pentyl]-1,3-thiazol-4-yl}formamido)-5-(4-aminophenyl)-2,2-dimethylpentanoic Acid] | 7.91 | –
CCCCCCN(C(=O)[C@@H](NC(=O)[C@H]1CCCCN1C)[C@@H](C)CC)[C@H](C[C@@H](OC(=O)NCCOCCOCCOCCN)c1nc(C(=O)N[C@@H](Cc2ccc(F)cc2)CC(C)(C)C(=O)O)cs1)C(C)C [Compound P11, (4S)-4-({2-[(1R,3R)-1-{[(2-{2-[2-(2-aminoethoxy)ethoxy]ethoxy}ethyl)carbamoyl]oxy}-3-[(2S,3S)—N-hexyl-3-methyl-2-{[(2R)-1-methylpiperidin-2-yl]formamido}pentanamido]-4-methylpentyl]-1,3-thiazol-4-yl}formamido)-5-(4-fluorophenyl)-2,2-dimethylpentanoic Acid] | 6.80 | –
